In patent publication US6429215B1, “N-oxide of heterocyclic ester, amide, thioester, or ketone hair growth compositions and uses” (GPI NIL Holdings, Inc., priority 1998, dated 2002):

Target: FKBP12 (Homo sapiens, UniProt P62942)
Assay: Inhibition of peptidyl-prolyl isomerase (rotamase) activity, apparent Ki
Format: biochemical
Details: chymotrypsin-coupled assay, N-succinyl-Ala-Ala-Pro-Phe-p-nitroanilide, pH 7.8
From the text: The inhibition of the prolyl peptidyl cis-trans isomerase activity of FKBP may be measured as an indicator of this affinity.
Inhibition of the peptidyl-prolyl isomerase (rotamase) activity of the compounds used in the inventive methods and pharmaceutical compositions can be evaluated by known methods described in the literature (Harding et al., Nature, 1989, 341:758-760; Holt et al. J. Am. Chem. Soc., 115:9923-9938). These values are obtained as apparent Ki's and are presented for representative compounds in TABLE II.
The cis-trans isomerization of an alanine-proline bond in a model substrate, N-succinyl-Ala-Ala-Pro-Phe-p-nitroanilide, is monitored spectrophotometrically in a chymotrypsin-coupled assay, which releases paranitroanilide from the trans form of the substrate. The inhibition of this reaction caused by the addition of different concentrations of inhibitor is determined, and the data is analyzed as a change in first-order rate constant as a function of inhibitor concentration to yield the apparent Ki values. […]
The absorbance at 390 nm versus time is monitored for 90 seconds using a spectrophotometer and the rate constants are determined from the absorbance versus time data files.

FKBP12, sequence (P62942 whole entry, species assumed): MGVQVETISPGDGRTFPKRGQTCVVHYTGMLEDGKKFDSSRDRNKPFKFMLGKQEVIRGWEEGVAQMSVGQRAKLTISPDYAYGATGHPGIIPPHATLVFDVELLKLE

Ki: 225 nM
Substance: 3-(3-Pyridyl)-1-propyl (2S)-1-(3,3-Dimethyl-1,2-dioxopentyl)-2-pyrrolidinecarboxylate, N-oxide [Compound 1]
